The values that follow come from patent publication US20220296565A1, “Pharmaceutical compositions of Ovatodiolide and the use thereof” (priority 2019, published 2022).

The test system of assay [1] is SiHa HPV 16 positive cervical cancer cells. The experiment in a line: MTT assay, SiHa cells. Type of assay: cell-based, human. To be noted: 72 h. Here is the method:
(§1) SiHa and HeLa cervical cancer cells and Human Dermal Fibroblasts (HDF) were cultured in DMEM (Sigma-Aldrich, St Louis, Mo., USA). The medium was supplemented with 10% fetal calf serum (BioClear, Wiltshire, UK), 2 mM L-glutamin, 100 U/ml penicillin, 100 μg/ml streptomycin (Sigma-Aldrich).
(§2) The MTT assay is a colorimetric assay widely used to study cell viability. It is based on the ability of NAD(P)H-dependent cellular oxidoreductase enzymes to reduce the MTT tetrazolium dye. The cells were treated with 0, 5, 10, 20 & 40 μM of OVT & AA for 72 h and then MTT was added and cytotoxicity was analyzed by a plate reader.
(§3) HPV-positive cervical cancer cells, SiHa, Hela cells, patient-derived HPV positive head and neck cancer cells and non-cancer human fibroblasts were treated with OVT at the dose range of 0, 5, 10, 20 and 40 μM and subjected to MTT assay and IC50 values were determined.

The subject of assay [2] is HeLa HPV 18 positive cervical cancer cells. Put plainly: MTT assay, HeLa cells. Type of assay: cell-based, human. The note with it: 72 h. Here is the method: as §1, §2, §3
In assay [3] the test system is UT-SCC 60A patient derived HPV positive Head and Neck cancer cells. Put plainly: MTT assay, UT-SCC 60A. Type of assay: cell-based, human. The note with it: 72 h. Here is the method: as §2, §3
Assay [4] deals with UT-SCC 60B patient derived HPV positive Head and Neck cancer cells. Put plainly: MTT assay, UT-SCC 60B. Type of assay: cell-based, human. The note with it: 72 h. Here is the method: as §2, §3
Assay [5] deals with UT-SCC 65 patient derived HPV positive Head and Neck cancer cells. Put plainly: MTT assay, UT-SCC 65. The note with it: UT-SCC 65, 72 h. Type of assay: cell-based, human. Here is the method:
as §2, §3

The subject of assay [6] is UT-SCC 69 patient derived HPV positive Head and Neck cancer cells. The experiment in a line: MTT assay, UT-SCC 69. Type of assay: cell-based, human. The note with it: UT-SCC 69, 72 h. Here is the method:
as §2, §3

Assay [7] concerns UT-SCC 102 patient derived HPV positive Head and Neck cancer cells. Put plainly: MTT assay, UT-SCC 102. Type of assay: cell-based, human. To be noted: UT-SCC 102, 72 h. Here is the method: as §2, §3
The test system of assay [8] is non-cancer human fibroblast cells. The experiment in a line: MTT assay, non-cancer human fibroblasts. Type of assay: cell-based. To be noted: 72 h. Here is the method:
as §2, §3

Assay [9] has as its system SiHa cells. Put plainly: Activated caspase-3 by flow cytometry. Type of assay: cell-based, human. The procedure: SiHa cells were treated with 0, 20 & 40 μM AA or OVT or solvent control for 24 & 48 h. Activated caspase-3 in cells was labeled with phyco-erythrin-conjugated antibody according to manufacturer's protocol (PE Active Caspase-3 Apoptosis Kit; BD Pharmingen, San Diego, Calif.) and analyzed by FACSCalibur flow cytometer (FL-2, FSC, BD Pharmingen).
We then incubated the cells with 0, 20 & 40 μM AA & OVT 24 and 48 hours, and determined the percentage of cells that contained activated caspase-3 as a measure of apoptosis.

Assay [10] deals with K87 primary skin fibroblast cells. Put plainly: MTT assay, K87 fibroblasts. Type of assay: cell-based, human. The note with it: 72 h. The procedure: as §2, §3
Assay [11] relates to K74 primary skin fibroblast cells. Put plainly: MTT assay, K74 fibroblasts. To be noted: 72 h. Type of assay: cell-based, human. Here is the method: as §2, §3
In assay [12] the test system is SiHa cells. The experiment in a line: Phase contrast microscopy of SiHa cells. Type of assay: cell-based, human. The note with it: 40 μM. From the text:
In order to examine the mechanism underlying the previously reported cytotoxicity of OVT, we investigated if OVT would induce apoptotic death of cultured SiHa cervical cancer cells.

The subject of assay [13] is SiHa cells. Put plainly: Cell-IQ high content imaging, proliferation of SiHa. The note with it: various doses, till 72 h. Type of assay: cell-based, human. The procedure:
(§4) SiHa cells—HPV 16 positive cervical cancer cell line; HeLa—HPV 18 positive cervical cancer cell line. […] Numbers 1-6 on the x-axis indicate 12 h intervals. The area of the plate that cells cover is indicated on the y-axis (arbitrary number of units).
(§5) The Cell-IQ Real-time imaging provides information on how the compounds are affecting cell morphology and cell proliferation at various doses up to 72 h. A rigorous image analysis protocol was developed to assess the effects of the compounds on cell proliferation.
(§6) The cells were imaged by high content imaging in Cell-IQ and the proliferation of the cells was observed till 72 h.

Another assay relates to HeLa cells. Put plainly: Cell-IQ high content imaging, proliferation of HeLa. Type of assay: cell-based, human. The note with it: various doses, till 72 h. Here is the method:
as §4, §5, §6

Assay [14] has as its system SiHa cells. Put plainly: Western blotting of SiHa cell lysates. Type of assay: cell-based, human. The procedure: Whole cell lysates were prepared by lysing the cells in Laemmli sample buffer (Laemmli, 1970) and boiling the samples for 10 min after which proteins were separated in 12.5-15% SDS-PAGE. Western blotting was performed using antibodies against caspase 3 (Cell Signaling), HPV16 E6, E7 (Santa Cruz Biotechnology, Inc, Santa Cruz, Calif.), and […] (clone AC-40; Sigma-Aldrich). Horseradish peroxidase-conjugated secondary antibodies were obtained from Southern Biotechnology Associates (Birmingham, Ala.), Promega (Madison, Wis.) and Amersham Biosciences (Freiburg, Germany). The results were visualized using the ECL method (Amersham Biosciences) on X-ray film. The presented Western blot results are representative of at least three independent experiments. SiHa cervical cancer cells have been transformed by high-risk human papillomavirus (HPV). As E6 and E7 play such critical roles in SiHa cell transformation, the expression of these viral proteins was examined.

As for `C=C1C(=O)OC2/C=C(/C)CC/C=C(\C(=O)O)CC/C=C(\C)CCC12` (stereo not drawn) [Anisomelic acid (AA), Anisomelic acid, reference compound], the IC50 was 32.1 µM in assay [1]; 33.2 µM in [2]; 18 µM in [3]; 22.8 µM in assay [4]; 42.8 µM in [5]; 23.9 µM in [6]. Besides, the IC50 in assay [7] worked out at 28.2 µM. Moreover, the “toxicity to non-cancer human fibroblast cells” value in assay [8] is on record as “not toxic at all”. Further, in the assay on SiHa cells [9] (40 μM, after 48 h), the “activation of caspase-3” value is “marked activation”.

Consider Ovatodiolide, for which the IC50 in assay [1] amounted to 10.7 µM; in [2], 10.7 µM; in assay [3] it was 5.53 µM; in assay [4], 3.33 µM; in assay [5], 14.1 µM; in [6], 0.859 µM. The results for the IC50 in [7], in assay [10] and in assay [11] were 7.73 µM, 19.7 µM and 13.2 µM, respectively. Moreover, in the assay on SiHa cells [12], the “cell death in SiHa cells” value is listed as “induced cell death”. Further, the “effect on cell morphology” value with SiHa cells [12] (72 hours, SiHa) was “clear effect on cell morphology”. In addition, the cell proliferation result in the assay with SiHa cells [13] and in the assay on HeLa cells was “inhibited the cell proliferation” in each case. Further, the “activation of caspase-3” value with SiHa cells [9] (20 μM, after 24 h, compared with 40 μM AA after 48 h) was “higher activation”. Besides, the “activation of caspase-3 compared to AA at the same concentration” value in the assay on SiHa cells [9] (40 μM, after 48 h) is listed as “almost doubled”. In addition, in the assay with SiHa cells [14] (20-40 μM), the “cleavage of caspase-3” value is given as “induced the cleavage”. In the assay on SiHa cells [14] (Western blot), the “HPV E6 and E7 viral proteins” value is “downregulation”. In the assay on SiHa cells [14] (Western blot), the cIAP2 protein level result was “downregulation”.
